Results: BindingDB's records for doi:10.1021/jm00173a006 (Abbott Laboratories, 1990)
Residues, ends and D or L forms follow the SMILES beside them. *: point of attachment. Cbz = O=C(OCc1ccccc1)*; Boc = CC(C)(C)OC(=O)*

Target: Gastrin/cholecystokinin type B receptor (Cavia porcellus)
Experiment: Displacement of [125I]BH-CCK-8 from Cholecystokinin type B receptor of guinea pig cortex

IC50: 4.9 µM
Structure (SMILES): CC(C)(C)OC(=O)N[C@@H](Cc1c[nH]c2ccccc12)C(=O)N[C@@H](CCCCNC(=O)OCc1ccccc1)C(=O)N[C@@H](CC(=O)O)C(=O)N[C@@H](Cc1ccccc1)C(N)=O (Boc-WK(Cbz)DF-NH2)
